Data on ten compounds can be found in ChEMBL document CHEMBL1136596, “Four novel bis-(naphtho-gamma-pyrones) isolated from Fusarium species as inhibitors of HIV-1 integrase” (Bioorg Med Chem Lett, 2003).

Assay [1] concerns the target T1, Human immunodeficiency virus type 1 integrase (Human immunodeficiency virus 1, UniProt Q7ZJM1). Kind of assay: Inhibition of HIV-1 integrase in strand transfer assay.
Assay [2] deals with T1, Human immunodeficiency virus type 1 integrase. Kind of assay: Inhibition of HIV-1 integrase in coupled transfer assay.
Assay [3] concerns Human immunodeficiency virus 1. Nature of the assay: Viral protection was determined in a 24 hr HIV-1 viral infectivity assay. Type of assay: functional, organism-based.

A word on the IC50: it is the point on the concentration scale where inhibition reaches its midpoint.

T1 sequence (Q7ZJM1 whole entry): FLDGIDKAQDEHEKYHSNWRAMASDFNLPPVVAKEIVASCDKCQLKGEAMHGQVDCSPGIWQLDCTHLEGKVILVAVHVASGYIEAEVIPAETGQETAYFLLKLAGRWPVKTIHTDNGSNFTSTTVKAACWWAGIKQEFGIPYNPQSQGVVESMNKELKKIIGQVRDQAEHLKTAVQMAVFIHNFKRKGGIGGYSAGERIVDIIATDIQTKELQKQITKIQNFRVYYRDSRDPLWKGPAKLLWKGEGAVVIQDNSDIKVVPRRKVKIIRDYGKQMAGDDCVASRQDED

As to `COc1cc(O)c2c(O)c3c(cc2c1-c1c(OC)cc(OC)c2c(OC)c4c(cc12)OC(C)C(C)C4=O)OC(C)C(C)C3=O` (stereo in doubt; 9e), the IC50 in assay [1] is greater than 100 µM; in assay [2] it was 40 µM.

With `COc1cc(OC)c2c(OC)c3c(cc2c1-c1c(OC)cc(OC)c2c(OC)c4c(cc12)OC(C)C(C)C4=O)OC(C)C(C)C3=O` (configuration not stated), the IC50 is greater than 100 µM in assay [1] and 60 µM in assay [2].

For the compound `C[C@@H]1Oc2cc3c(-c4c(O)cc(O)c5c(O)c6c(cc45)O[C@H](C)[C@@H](C)C(=O)O6)c(O)cc(O)c3c(O)c2C(=O)[C@@H]1C`, the 50% inhibitory concentration (IC50) in assay [1] came to 9 µM; in assay [2] it was 3 µM.

For the compound `Cc1oc2cc3c(-c4c(O)cc(O)c5c(O)c6c(cc45)O[C@H](C)[C@H](C)C6=O)c(O)cc(O)c3c(O)c2c(=O)c1C`, the IC50 in assay [1] came out at 4 µM; in assay [2], 1 µM.

In the case of `CC1Oc2cc3c(-c4c(O)cc(O)c5c(O)c6c(cc45)OC(C)C(C)C6=O)c(O)cc(O)c3c(O)c2C(=O)C1C` (stereo in doubt; form 1), the IC50 amounted to 3 µM in assay [3] (Human immunodeficiency virus 1, 24 h); 12 µM in assay [1]; 2 µM in assay [2].

With `COc1cc(O)c2c(O)c3c(cc2c1-c1c(OC)cc(OC)c2c(OC)c4c(cc12)OC(C)C(C)C4=O)OC(C)C(C)C3=O` (stereo in doubt; 9d), the IC50 is greater than 100 µM in assay [1] and 80 µM in assay [2].

Regarding `COc1cc(O)c2c(OC)c3c(cc2c1-c1c(OC)cc(OC)c2c(OC)c4c(cc12)OC(C)C(C)C4=O)OC(C)C(C)C3=O` (configuration not stated), the IC50 in assay [1] was greater than 100 µM; in assay [2], 40 µM.

Consider `CC1Oc2cc3c(-c4c(O)cc(O)c5c(O)c6c(cc45)OC(C)C(C)C6=O)c(O)cc(O)c3c(O)c2C(=O)C1C` (stereo in doubt; form 2), for which the IC50 in assay [3] is 2 µM; in assay [1], 12 µM; in assay [2], 2 µM.

Turning to `COc1cc(O)c2c(OC)c3c(cc2c1-c1c(O)cc(OC)c2c(OC)c4c(cc12)OC(C)C(C)C4=O)OC(C)C(C)C3=O` (configuration not stated), the 50% inhibitory concentration (IC50) in assay [1] was greater than 100 µM; in assay [2], 8 µM.

On to `CC(=O)Oc1cc(OC(C)=O)c2c(OC(C)=O)c3c(cc2c1-c1c(OC(C)=O)cc(OC(C)=O)c2c(OC(C)=O)c4c(cc12)OC(C)C(C)C4=O)OC(C)C(C)C3=O` (configuration not stated), for which the IC50 in assay [1] was greater than 100 µM; in assay [2] it was 50 µM.
